For the experiment, the system named is MV-4-11 cells. The experiment can be described thus: Gene expression microarray analysis (Affymetrix PrimeView) and GSEA. It is filed as cell-based, human. Also noted: RFU PODN (11730768_x_at) / Fold change /veh PODN (11730768_x_at) / RFU LINC00158 (11744669_a_at) / Fold change /veh LINC00158 (11744669_a_at) / RFU DUSP10 (11751237_a_at) / Fold change /veh DUSP10 (11751237_a_at) / RFU ID3 (11757404_x_at) / Fold change /veh ID3 (11757404_x_at) / RFU PLEKHG5 (11737974_s_at) / Fold change /veh PLEKHG5 (11737974_s_at) / RFU LRRC4B (11730491_at) / Fold change /veh LRRC4B (11730491_at) / RFU GIMAP4 (11747438_a_at) / Fold change /veh GIMAP4 (11747438_a_at) / RFU KRT8 (11758183_x_at) / Fold change /veh KRT8 (11758183_x_at) / RFU CNN1 (11734310_a_at) / Fold change /veh CNN1 (11734310_a_at) / RFU VPS37D (11726825_at) / Fold change /veh VPS37D (11726825_at) / RFU C10orf10 (11716522_x_at) / Fold change /veh C10orf10 (11716522_x_at) / RFU KIR2DL2 /// KIR2DL4 /// KIR2DL5A /// KIR2DL5B /// KIR2DS1 /// KIR2DS2 /// KIR2DS3 /// KIR2DS4 /// KIR3DL3 /// KIR3DL3 /// KIR3DS1 (11738374_at) / Fold change /veh KIR2DL2 /// KIR2DL4 /// KIR2DL5A /// KIR2DL5B /// KIR2DS1 /// KIR2DS2 /// KIR2DS3 /// KIR2DS4 /// KIR3DL3 /// KIR3DL3 /// KIR3DS1 (11738374_at) / RFU C1QL1 (11718748_at) / Fold change /veh C1QL1 (11718748_at) / RFU TMPRSS4 (11747572_a_at) / Fold change /veh TMPRSS4 (11747572_a_at) / RFU HAMP (11756126_x_at) / Fold change /veh HAMP (11756126_x_at) / RFU RNFT2 (11725882_a_at) / Fold change /veh RNFT2 (11725882_a_at) / RFU NR4A2 (11747474_a_at) / Fold change /veh NR4A2 (11747474_a_at) / RFU ABCC12 (11746883_a_at) / Fold change /veh ABCC12 (11746883_a_at) / RFU TMEM136 (11760407_x_at) / Fold change /veh TMEM136 (11760407_x_at) / RFU CLDN22 /// WWC2 (11732394_at) / Fold change /veh CLDN22 /// WWC2 (11732394_at) / RFU HLA-DPB1 (11760878_x_at) / Fold change /veh HLA-DPB1 (11760878_x_at) / RFU SPINT1 (11716480_a_at) / Fold change /veh SPINT1 (11716480_a_at) / RFU GAP43 (11754022_s_at) / Fold change /veh GAP43 (11754022_s_at) / RFU A4GNT (11735810_at) / Fold change /veh A4GNT (11735810_at) / RFU PRB3 (11715151_x_at) / Fold change /veh PRB3 (11715151_x_at) / RFU TUBB4B (11761932_at) / Fold change /veh TUBB4B (11761932_at) / RFU CAPN14 (11732068_a_at) / Fold change /veh CAPN14 (11732068_a_at) / RFU TMCC2 (11721928_a_at) / Fold change /veh TMCC2 (11721928_a_at) / RFU IRGQ (11745062_a_at) / Fold change /veh IRGQ (11745062_a_at) / RFU FAM174B (11720279_a_at) / Fold change /veh FAM174B (11720279_a_at) / RFU TMPRSS4 (11748680_a_at) / Fold change /veh TMPRSS4 (11748680_a_at) / RFU FAM212B (11763350_a_at) / Fold change /veh FAM212B (11763350_a_at) / RFU PLEKHG5 (11743358_a_at) / Fold change /veh PLEKHG5 (11743358_a_at) / RFU ZSCAN30 (11745921_a_at) / Fold change /veh ZSCAN30 (11745921_a_at) / RFU CMKLR1 (11741424_a_at) / Fold change /veh CMKLR1 (11741424_a_at) / RFU LOC101060620 /// MAPK8IP1 (11723275_at) / Fold change /veh LOC101060620 /// MAPK8IP1 (11723275_at) / RFU SPTSSB (11747773_x_at) / Fold change /veh SPTSSB (11747773_x_at) / RFU PRSS12 (11739890_at) / Fold change /veh PRSS12 (11739890_at) / RFU BIN1 (11741810_x_at) / Fold change /veh BIN1 (11741810_x_at) / RFU WNT11 (11732464_a_at) / Fold change /veh WNT11 (11732464_a_at) / RFU C10orf10 (11716521_a_at) / Fold change /veh C10orf10 (11716521_a_at) / RFU C5orf56 (11738089_at) / Fold change /veh C5orf56 (11738089_at) / RFU CYB561 (11721691_x_at) / Fold change /veh CYB561 (11721691_x_at) / RFU ANKRD19P (11752326_a_at) / Fold change /veh ANKRD19P (11752326_a_at) / RFU OR2T12 /// OR2T33 /// OR2T8 (11738714_s_at) / Fold change /veh OR2T12 /// OR2T33 /// OR2T8 (11738714_s_at) / RFU VCAN (11748164_a_at) / Fold change /veh VCAN (11748164_a_at) / RFU JSRP1 (11732532_at) / Fold change /veh JSRP1 (11732532_at) / RFU KRTAP10-11 (11738290_x_at) / Fold change /veh KRTAP10-11 (11738290_x_at) / RFU MYO3A (11730013_a_at) / Fold change /veh MYO3A (11730013_a_at) / RFU EBF3 (11725865_a_at) / Fold change /veh EBF3 (11725865_a_at) / RFU CAMK2N1 (11719241_x_at) / Fold change /veh CAMK2N1 (11719241_x_at) / RFU C5orf56 (11738088_a_at) / Fold change /veh C5orf56 (11738088_a_at) / RFU OLFML3 (11715873_a_at) / Fold change /veh OLFML3 (11715873_a_at) / RFU LOC100653217 /// NTM (11731650_a_at) / Fold change /veh LOC100653217 /// NTM (11731650_a_at) / RFU MAPK11 (11762145_a_at) / Fold change /veh MAPK11 (11762145_a_at) / RFU FIZ1 (11724087_x_at) / Fold change /veh FIZ1 (11724087_x_at) / RFU OASL (11726364_x_at) / Fold change /veh OASL (11726364_x_at) / RFU SOX15 (11748057_x_at) / Fold change /veh SOX15 (11748057_x_at) / RFU CD79A (11719716_a_at) / Fold change /veh CD79A (11719716_a_at) / RFU HIST1H1D (11736915_at) / Fold change /veh HIST1H1D (11736915_at) / RFU CASKIN2 (11723855_a_at) / Fold change /veh CASKIN2 (11723855_a_at) / RFU LOC730098 (11760151_x_at) / Fold change /veh LOC730098 (11760151_x_at) / RFU OR4N2 (11742367_at) / Fold change /veh OR4N2 (11742367_at) / RFU PRRT2 (11749266_a_at) / Fold change /veh PRRT2 (11749266_a_at) / RFU SNX32 (11753110_a_at) / Fold change /veh SNX32 (11753110_a_at) / RFU CDHR5 (11726645_a_at) / Fold change /veh CDHR5 (11726645_a_at) / RFU RCAN1 (11760418_a_at) / Fold change /veh RCAN1 (11760418_a_at) / RFU FAM167A (11723789_a_at) / Fold change /veh FAM167A (11723789_a_at) / RFU FAM26E (11764081_at) / Fold change /veh FAM26E (11764081_at) / RFU ISYNA1 (11749810_s_at) / Fold change /veh ISYNA1 (11749810_s_at) / RFU ACY1 (11761880_at) / Fold change /veh ACY1 (11761880_at) / RFU 11764098_at / Fold change /veh 11764098_at / RFU SAMD14 (11745864_x_at) / Fold change /veh SAMD14 (11745864_x_at) / RFU NPB (11741838_a_at) / Fold change /veh NPB (11741838_a_at) / RFU TMPRSS6 (11731388_a_at) / Fold change /veh TMPRSS6 (11731388_a_at) / RFU KRTAP10-2 (11738614_at) / Fold change /veh KRTAP10-2 (11738614_at) / RFU ARHGAP8 /// PRR5-ARHGAP8 (11727945_x_at) / Fold change /veh ARHGAP8 /// PRR5-ARHGAP8 (11727945_x_at) / RFU KRTAP5-7 /// NADSYN1 (11734609_at) / Fold change /veh KRTAP5-7 /// NADSYN1 (11734609_at) / RFU RASL12 (11751679_a_at) / Fold change /veh RASL12 (11751679_a_at) / RFU CDKN2B (11736163_a_at) / Fold change /veh CDKN2B (11736163_a_at) / RFU PRF1 (11729649_at) / Fold change /veh PRF1 (11729649_at) / RFU, ZNF638 /// ZNF638-IT1 / Fold change vs veh, ZNF638 /// ZNF638-IT1 / RFU, PANK3 / Fold change vs veh, PANK3 / RFU, SH3YL1 / Fold change vs veh, SH3YL1 / RFU, ZEB2 / Fold change vs veh, ZEB2 / RFU, NRIP1 / Fold change vs veh, NRIP1 / RFU, PTTG1IP / Fold change vs veh, PTTG1IP / RFU, CAPN2 / Fold change vs veh, CAPN2 / RFU, MED14 / Fold change vs veh, MED14 / RFU, SNORA58 / Fold change vs veh, SNORA58 / RFU, C1orf63 / Fold change vs veh, C1orf63 / RFU, LRRFIP1 / Fold change vs veh, LRRFIP1 / RFU, NDUFAF7 / Fold change vs veh, NDUFAF7 / RFU, SLC12A2 / Fold change vs veh, SLC12A2 / RFU, IBTK / Fold change vs veh, IBTK / RFU, ESF1 / Fold change vs veh, ESF1 / Fold change vs veh, TMEM50B / RFU, TAOK1 / Fold change vs veh, TAOK1 / RFU, ACBD3 / Fold change vs veh, ACBD3 / RFU, TMA16 / Fold change vs veh, TMA16 / RFU, RWDD3 / Fold change vs veh, RWDD3 / RFU, BCAT1 / Fold change vs veh, BCAT1 / RFU, EDEM3 / Fold change vs veh, EDEM3 / RFU, TMEM33 / Fold change vs veh, TMEM33 / RFU, WDR75 / Fold change vs veh, WDR75 / RFU, AHCTF1 / Fold change vs veh, AHCTF1 / RFU, TFRC / Fold change vs veh, TFRC / RFU, ZDHHC17 / Fold change vs veh, ZDHHC17 / RFU, NOM1 / Fold change vs veh, NOM1 / RFU, ARL8B / Fold change vs veh, ARL8B / RFU, ZBTB11 / Fold change vs veh, ZBTB11 / RFU, TAMM41 / Fold change vs veh, TAMM41 / RFU, KIAA1704 /// LOC100996395 / Fold change vs veh, KIAA1704 /// LOC100996395 / RFU, ING1 / Fold change vs veh, ING1 / RFU, TRMT61B / Fold change vs veh, TRMT61B / RFU, FUBP3 / Fold change vs veh, FUBP3 / RFU, TP53 / Fold change vs veh, TP53 / RFU, TNKS2 / Fold change vs veh, TNKS2 / RFU, ZFP14 / Fold change vs veh, ZFP14 / RFU, ACTR2 / Fold change vs veh, ACTR2 / RFU, PPP3R1 / Fold change vs veh, PPP3R1 / RFU, PIK3R1 / Fold change vs veh, PIK3R1 / RFU, HNRNPA1 / Fold change vs veh, HNRNPA1 / RFU, RNF170 / Fold change vs veh, RNF170 / RFU, ZNF28 / Fold change vs veh, ZNF28 / RFU, RNGTT / Fold change vs veh, RNGTT / RFU, OGT / Fold change vs veh, OGT / RFU, BRD1 / Fold change vs veh, BRD1 / RFU, MARS / Fold change vs veh, MARS / RFU, ZNF655 / Fold change vs veh, ZNF655 / RFU, FAHD1 / Fold change vs veh, FAHD1 / RFU, BDP1 / Fold change vs veh, BDP1 / RFU, LRRCC1 / Fold change vs veh, LRRCC1 / RFU, ARID1A / Fold change vs veh, ARID1A / RFU, ZNF146 / Fold change vs veh, ZNF146 / RFU, ZNF330 / Fold change vs veh, ZNF330 / RFU, GPN3 / Fold change vs veh, GPN3 / RFU, C9orf123 / Fold change vs veh, C9orf123 / RFU, N4BP2L2 / Fold change vs veh, N4BP2L2 / RFU, ARFIP1 / Fold change vs veh, ARFIP1 / RFU, FAM179B / Fold change vs veh, FAM179B / RFU, BCL10 / Fold change vs veh, BCL10 / RFU, UHRF1BP1L / Fold change vs veh, UHRF1BP1L / RFU, BET1 / Fold change vs veh, BET1 / RFU, CNOT2 / Fold change vs veh, CNOT2 / RFU, ZNF268 / Fold change vs veh, ZNF268 / Fold change vs veh, ZNF507 / RFU, DGCR2 / Fold change vs veh, DGCR2 / RFU, WDSUB1 / Fold change vs veh, WDSUB1 / Fold change vs veh, HSP90B1 /// MIR3652 / RFU, ADSS / Fold change vs veh, ADSS / RFU, GK / Fold change vs veh, GK / RFU, ZNF148 / Fold change vs veh, ZNF148 / RFU, TAF9 / Fold change vs veh, TAF9 / RFU, SLC1A5 / Fold change vs veh, SLC1A5 / RFU, SLMO2 / Fold change vs veh, SLMO2 / RFU, ABCC4 / Fold change vs veh, ABCC4 / RFU, LOC101060439 /// RAP1B / Fold change vs veh, LOC101060439 /// RAP1B / RFU, RFX7 / Fold change vs veh, RFX7 / RFU, GTPBP10 / Fold change vs veh, GTPBP10 / RFU, CNEP1R1 / Fold change vs veh, CNEP1R1 / RFU, BIVM-ERCC5 /// ERCC5 / Fold change vs veh, BIVM-ERCC5 /// ERCC5 / RFU, ILF3 / Fold change vs veh, ILF3 / RFU 11762660_at / Fold change /veh 11762660_at / RFU VCAN (11757783_s_at) / Fold change /veh VCAN (11757783_s_at) / RFU DDX43 (11728927_at) / Fold change /veh DDX43 (11728927_at) / RFU KRT8 (11758188_x_at) / Fold change /veh KRT8 (11758188_x_at) / RFU NKD1 (11759106_at) / Fold change /veh NKD1 (11759106_at) / RFU SRD5A1 (11742802_a_at) / Fold change /veh SRD5A1 (11742802_a_at) / RFU TPSAB1 /// TPSB2 (11721975_s_at) / Fold change /veh TPSAB1 /// TPSB2 (11721975_s_at) / RFU GSTM3 (11746129_a_at) / Fold change /veh GSTM3 (11746129_a_at) / RFU IL23R (11737362_x_at) / Fold change /veh IL23R (11737362_x_at) / RFU TMEM51 (11727254_a_at) / Fold change /veh TMEM51 (11727254_a_at) / RFU PIWIL2 (11732686_x_at) / Fold change /veh PIWIL2 (11732686_x_at) / RFU ORM1 (11744905_x_at) / Fold change /veh ORM1 (11744905_x_at) / RFU CCDC152 (11743942_at) / Fold change /veh CCDC152 (11743942_at) / RFU ECM1 (11717891_a_at) / Fold change /veh ECM1 (11717891_a_at) / RFU IL23R (11748794_a_at) / Fold change /veh IL23R (11748794_a_at) / RFU TNFAIP8L3 (11732012_x_at) / Fold change /veh TNFAIP8L3 (11732012_x_at) / RFU MBOAT4 (11741988_at) / Fold change /veh MBOAT4 (11741988_at) / RFU 11764193_at / Fold change /veh 11764193_at / RFU TMEM53 (11763286_at) / Fold change /veh TMEM53 (11763286_at) / RFU MAGEB2 (11727129_at) / Fold change /veh MAGEB2 (11727129_at) / RFU TMEM200A (11744735_a_at) / Fold change /veh TMEM200A (11744735_a_at) / RFU CCDC152 (11751479_a_at) / Fold change /veh CCDC152 (11751479_a_at) / RFU FAM211A (11726209_a_at) / Fold change /veh FAM211A (11726209_a_at) / RFU RGS16 (11746705_a_at) / Fold change /veh RGS16 (11746705_a_at) / RFU VCAN (11755009_s_at) / Fold change /veh VCAN (11755009_s_at) / RFU RHOB (11743442_s_at) / Fold change /veh RHOB (11743442_s_at) / RFU RGS16 (11720943_a_at) / Fold change /veh RGS16 (11720943_a_at) / RFU RGS16 (11720944_at) / Fold change /veh RGS16 (11720944_at) / RFU, VPS4B / Fold change vs veh, VPS4B / RFU, CREB1 / Fold change vs veh, CREB1 / RFU, DNAJC13 / Fold change vs veh, DNAJC13 / RFU, GNAQ / Fold change vs veh, GNAQ / RFU, CDK5R1 / Fold change vs veh, CDK5R1 / RFU, ZRANB3 / Fold change vs veh, ZRANB3 / RFU, CUL4A / Fold change vs veh, CUL4A / RFU, CCNY / Fold change vs veh, CCNY / RFU, UFL1 / Fold change vs veh, UFL1 / RFU, COG3 / Fold change vs veh, COG3 / RFU, DIAPH2 / Fold change vs veh, DIAPH2 / RFU, SKA2 / Fold change vs veh, SKA2 / RFU, AFF3 / Fold change vs veh, AFF3 / RFU, LMF1 / Fold change vs veh, LMF1 / RFU, IPO11 / Fold change vs veh, IPO11 / RFU, DFFB / Fold change vs veh, DFFB / RFU, FOXP1 / Fold change vs veh, FOXP1 / RFU, CARD8 / Fold change vs veh, CARD8 / RFU, STRN3 / Fold change vs veh, STRN3 / RFU, ADK / Fold change vs veh, ADK / RFU, RASSF2 / Fold change vs veh, RASSF2 / RFU, WIPF1 / Fold change vs veh, WIPF1 / RFU, LARP1B / Fold change vs veh, LARP1B / RFU, RASA1 / Fold change vs veh, RASA1 / RFU, RB1 / Fold change vs veh, RB1 / RFU, PPFIA1 / Fold change vs veh, PPFIA1 / RFU, MAT2A / Fold change vs veh, MAT2A / RFU, CCT5 / Fold change vs veh, CCT5 / RFU, WDR92 / Fold change vs veh, WDR92 / RFU, CUX1 / Fold change vs veh, CUX1 / RFU, TTC7A / Fold change vs veh, TTC7A / RFU, TMEM135 / Fold change vs veh, TMEM135 / RFU, DEPTOR / Fold change vs veh, DEPTOR / RFU, CPM / Fold change vs veh, CPM / RFU, DNAJB6 / Fold change vs veh, DNAJB6 / RFU, CACNA2D3 / Fold change vs veh, CACNA2D3 / RFU, DTX4 / Fold change vs veh, DTX4 / RFU, TFCP2 / Fold change vs veh, TFCP2 / RFU, GMCL1 /// GMCL1P1 / Fold change vs veh, GMCL1 /// GMCL1P1 / RFU, AEBP2 / Fold change vs veh, AEBP2 / RFU, SNHG1 /// SNORD22 /// SNORD25 /// SNORD26 /// SNORD27 /// SNORD28 /// SNORD29 /// SNORD31 / Fold change vs veh, SNHG1 /// SNORD22 /// SNORD25 /// SNORD26 /// SNORD27 /// SNORD28 /// SNORD29 /// SNORD31 / Fold change (Aza/veh), C12orf56 (ProbeSet 11735607_a_at) / Fold change (ACY-1035/veh), C12orf56 (ProbeSet 11735607_a_at) / Fold change (Aza/veh), FGFR1OP (ProbeSet 11751329_s_at) / Fold change (ACY-1035/veh), FGFR1OP (ProbeSet 11751329_s_at) / Fold change (Aza/veh), VPS36 (ProbeSet 11739960_a_at) / Fold change (ACY-1035/veh), VPS36 (ProbeSet 11739960_a_at) / RFU SYPL1 (11715823_x_at) / Fold change /veh SYPL1 (11715823_x_at) / RFU IGFBP7 (11715501_s_at) / Fold change /veh IGFBP7 (11715501_s_at) / RFU REEP3 (11722064_at) / Fold change /veh REEP3 (11722064_at) / RFU IGLL1 (11728026_x_at) / Fold change /veh IGLL1 (11728026_x_at): dose or concentration left out as unconfirmed. The settings on record: ProbeSet 11753623_s_at; LIST D.

The text below walks through data of PMC5218480 (PLoS ONE, 2017).

As for `Nc1ncn([C@@H]2O[C@H](CO)[C@@H](O)[C@H]2O)c(=O)n1` [azacitidine], the “Fold change vs veh, LOC101060439 /// RAP1B” value was found to be 0.77.
